pIC50: −log10 of the molar value.
How the values were obtained:
FK binding protein = assay: Standard test for FK binding protein binding activity; conditions: standard tests
calcineurin = assay: Standard test for calcineurin activity; assay type: biochemical; conditions: standard tests
[1] = system: human monocytic cell line THP1; assay: Cytotoxicity, MTT read-out; assay type: cell-based
Experimental: Cytotoxicity is determined using the human monocytic cell line THP1 (5×10^4 cells/well) which are incubated in the presence of IFNgamma (100 U/ml) and LPS (5 microgram/ml) plus test compound (up to 10 micromolar) for 24 to 72 h at 37° C. Living cells are quantified using the colourimetric read-out MTT which measures mitochondrial dehydrogenase enzymatic activity in living cells (Mossman 1983). Macrolides of the invention, e.g. compounds of formula IX and their pharmaceutically acceptable salts, e.g. Sanglifehrins A, B, C and D, have IC50 of about 1000-5000 nM after 24 h incubation in this assay. (Mossman T. J. (1983), Rapid calorimetric assay for cellular growth and survival: application to proliferation and cytotoxic assays, J. Imm. Methods, 65, 55-63).

## Sanglifehrin A
FK binding protein
  FK binding protein binding activity: do not have FK binding protein binding activity
calcineurin
  inhibition of calcineurin activity: do not inhibit calcineurin activity

## Sanglifehrin B
[1]
  pIC50: 5.30 to 6.00
FK binding protein
  FK binding protein binding activity: do not have FK binding protein binding activity
calcineurin
  inhibition of calcineurin activity: do not inhibit calcineurin activity

— patent publication US20090221598A1, “Use of Sanglifehrin in HCV” (priority 2005, published 2009)
